Consider eight compounds from ChEMBL document CHEMBL3272155, “Synthesis of beta-spiro[pyrrolidinoindolines], their binding to the glycine receptor, and in vivo biological acitivity” (J Med Chem, 1977).

The structures appear in SMILES notation. Bounds are passed on as bounds.

Series [1] can be described thus: Toxicity in ip dosed COBS-CDI mouse assessed as mortality measured after 3 hrs. It counts as organism-based. The following applies: in vivo.
The subject of series [2] is Mus musculus. Briefly: Induction of tonic convulsions in ip dosed COBS-CDI mouse measured after 3 hrs. Type of series: functional.
In series [3] the test system is Mus musculus. Briefly: Induction of clonic convulsions in ip dosed COBS-CDI mouse measured after 3 hrs. It counts as functional.
The target in series [4] is T1, Glycine receptor subunit alpha-1 (Rattus norvegicus, UniProt P07727).
T1 sequence (P07727 whole entry): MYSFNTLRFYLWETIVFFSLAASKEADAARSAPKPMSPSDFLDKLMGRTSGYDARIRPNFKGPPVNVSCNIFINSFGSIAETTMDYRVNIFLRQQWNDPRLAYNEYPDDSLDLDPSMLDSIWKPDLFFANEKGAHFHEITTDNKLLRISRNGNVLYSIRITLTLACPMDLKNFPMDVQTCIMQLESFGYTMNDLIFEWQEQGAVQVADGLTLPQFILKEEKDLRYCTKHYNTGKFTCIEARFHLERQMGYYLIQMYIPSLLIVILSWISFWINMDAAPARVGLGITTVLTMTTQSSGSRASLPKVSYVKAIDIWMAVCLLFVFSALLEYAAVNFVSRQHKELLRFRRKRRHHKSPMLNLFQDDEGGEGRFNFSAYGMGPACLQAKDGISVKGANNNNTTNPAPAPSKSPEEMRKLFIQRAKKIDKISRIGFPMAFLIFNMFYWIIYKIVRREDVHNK
Briefly: Displacement of [3H]Strychnine from glycine receptor in rat brain synaptic membranes. It counts as cell membranes. (Displacement assays read how much labelled ligand stays bound in the presence of the test substance.)

For `CC(=O)N1CC2(CCCC2)c2ccccc21`, the LD50 at 3 h in series [1] was determined as 6880 µmol/kg. In addition, the figures for the ED50 in the series on Mus musculus [2] and in the series on Mus musculus [3] were above 7420 µmol/kg and 1650 µmol/kg, respectively. The same compound displayed an IC50 in series [4] above 1000 µM.
As for `CC(=O)N1CC2(CCN(C)C2)c2ccccc21` (configuration not stated), the LD50 at 3 h in series [1] was found to be 94.8 µmol/kg. For the same compound, the 50% effective dose (ED50) in the series on Mus musculus [2] was found to be 83.9 µmol/kg; in the series on Mus musculus [3], 79.6 µmol/kg. In series [4], this compound displayed an IC50 of 23.6 µM.
Turning to `CC(=O)N1CC2(CCN(Cc3ccccc3)C2)c2ccccc21.O=C(O)C(=O)O` (configuration not stated), the median lethal dose (LD50) at 3 h in series [1] amounted to 505 µmol/kg. In addition, the results for the ED50 in the series on Mus musculus [2] and in the series with Mus musculus [3] were above 1010 µmol/kg and 252 µmol/kg, respectively. Further, in series [4], the IC50 is 31 µM.
The corresponding values for `C=CCN1CCC2(C1)CN(C(C)=O)c1ccccc12.O=C(O)C(=O)O` (configuration not stated) are 396 µmol/kg, 434 µmol/kg, 300 µmol/kg and 67.9 µM.
As for `CC(=O)N1CC2(CCNC2)c2ccccc21.O=C(O)C(=O)O` (configuration not stated), the median lethal dose (LD50) at 3 h in series [1] is 687 µmol/kg. Besides, the median effective dose (ED50) amounted to 746 µmol/kg in the series with Mus musculus [2] and 542 µmol/kg in the series on Mus musculus [3]. The compound also displayed an IC50 in series [4] of 295 µM.
The matching figures for `CN1CCC2(CNc3ccccc32)C1` (configuration not stated): 412 µmol/kg, 412 µmol/kg, 365 µmol/kg and 282 µM.
The corresponding values for `CC(=O)N1CCc2ccccc21` are 1400 µmol/kg, above 2480 µmol/kg, above 2480 µmol/kg and above 1000 µM.
The corresponding values for `CC(=O)N1c2ccccc2C(C)(C)C1C` (racemic) are 2830 µmol/kg, above 3940 µmol/kg, below 1970 µmol/kg and above 1000 µM.

For orientation: LD50 means the dose expected to kill half of the subjects tested. For orientation: ED50 means the dose at which the effect has come halfway, by size or by number of responders. By IC50 is commonly meant the point on the concentration scale where inhibition reaches its midpoint. Read a low IC50 as higher potency.
